In patent publication US9168329B2, “Beta-peptides with antifungal activity” (Wisconsin Alumni Research Foundation, priority 2006, dated 2015):
Values after ≈ are worked out from the molar mass of the structure shown. Where two headings read alike, the source gives them in different places. Square brackets hold non-standard residues; d marks the D form. Ends that are not written are not given here. Peptide text beside a SMILES is read from it.

Legend:
[1] = tested on: human red blood cells (hRBC); experiment: Hemolysis assay; format: cell-based
Description: Hemolysis assay. The hemolysis assay was performed using human red blood cells (hRBC) as described previously (Raguse, et al. J. Am. Chem. Soc. 2002, 124, 12774-12785; Porter, et al. J. Am. Chem. Soc. 2005, 127, 11516-11529). The hRBC were washed three times in TRIS-buffered saline (TBS; 10 mM TRIS, 150 mM NaCl, pH 7.2) and then diluted to a concentration of 1% (v/v) in TBS. The hRBC suspension (80 μL) was added to twofold dilutions of peptides in TBS (20 μL) in a 96-well plate (Falcon). Wells containing hRBC treated with 20 μL TBS provided a negative control, and wells with high concentrations of the peptide melittin (Sigma) served as a positive control. After incubating at 37° C. for 1 h, plates were centrifuged, and 50 μL of the supernatant was diluted with 50 μL of water in a fresh 96-well plate. The absorbance of the diluted supernatant was measured at 405 nm, and the percent hemolysis for each well was calculated from
[formula] where A405^peptide is the absorbance for the supernatant of hRBC treated with peptide, A405^buffer is the absorbance for the supernatant of hRBC in TBS, and A405^completlysis is the average absorbance for the supernatant of cells treated with melittin at concentrations of 50-400 μg/mL. Experiments were performed in duplicate on at least two different days. Biofilm Antifungal Susceptibility Testing

[2] = tested on: Candida albicans (SC5314, ATCC 24433, ATCC 90028); format: cell-based; settings: for MIC: SC5314
Description: Minimum inhibitory concentration assay. Minimum inhibitory concentrations (MIC) for the β-peptides were determined using the broth microdilution assay described by the Committee for Clinical and Laboratory Standards (formerly known as the National Committee for Clinical Laboratory Standards) (National Committee for Clinical Laboratory Standards Reference method for broth dilution antifungal susceptibility testing of yeasts: approved standard—second edition; NCCLS document M27-A2; NCCLS: Wayne, Pa., 2002). Three strains of Candida albicans were used: SC5314, ATCC 24433, and ATCC 90028. Cells were grown for 24 hours on Sabouraud dextrose agar at 30° C. After 24 hours of growth, the cells were suspended in 0.145 M saline, and the concentration was adjusted to between 1×10^6 cells/mL and 5×10^6 cells/mL in saline. The working suspension was obtained by diluting the suspension 1:1000 in RPMI 1640 (with L-glutamine and without sodium bicarbonate, Invitrogen) buffered with 0.145 mol/L 3-(N-morpholino) propanesulfonic acid (MOPS).
Twofold serial dilutions of stock solutions of α- or β-peptides or amphotericin B (Calbiochem, solubilized in dimethyl sulfoxide) were made in RPMI 1640, and 100 μL aliquots were put into 96-well plates (Falcon). An equal volume of the cell suspension was added to the wells for a total volume of 200 μL. Growth controls and sterility controls were included.
Plates were incubated at 35° C. for 48 h and then visually inspected for fungal growth. […] Experiments were performed in duplicate and repeated on at least two different days.

[3] = pH 7, physiological ionic strength
[4] = average over three C. albicans strains, pH 7, physiological ionic strength, Table 1 prints no unit

Average MIC ([2]; SC5314, pH 7)	Molecule	% Hemolysis at MIC [1]	antifungal activity in the planktonic NCCLS assay (in words) [2, 3]	further results
11 µg/mL	CC(C)C[C@@H](CC(=O)N[C@@H](CCCCN)CC(=O)N[C@H]1CCCC[C@@H]1C(=O)N[C@H](CC(=O)N[C@@H](CCCCN)CC(=O)N[C@H]1CCCC[C@@H]1C(=O)N[C@H](CC(=O)N[C@@H](CCCCN)CC(N)=O)CC(C)C)CC(C)C)NC(=O)[C@H]1CCCC[C@@H]1NC(=O)C[C@@H](N)Cc1ccc(O)cc1 [β-peptide 2, β^3Tyr-(ACHC-β^3Leu-β^3Lys)3]	73%		
	β^3Tyr-(ACHC-β^3Val-β^3Arg)3		showed activity in the planktonic assay	
	cecropin B (KWKVFKKIEKMGRNIRNGIVKAGPAIAVLGEAKAL; ends and bridges not checked; UniProt P01508 27-61, looked up) [amphiphilic host-defense α-peptide, reference compound]		neither cecropin B nor a magainin derivative displays any activity	
>128 µg/mL	CC[C@@H](C)[C@@H](NC(=O)CN)C(=O)NCC(=O)N[C@H](CCCCN)C(=O)N[C@H](Cc1ccccc1)C(=O)N[C@H](CC(C)C)C(=O)N[C@H](Cc1c[nH]cn1)C(=O)N[C@H](C)C(=O)N[C@H](C)C(=O)N[C@H](CCCCN)C(=O)N[C@H](CCCCN)C(=O)N[C@H](Cc1ccccc1)C(=O)N[C@H](C)C(=O)N[C@H](CCCCN)C(=O)N[C@H](C)C(=O)N[C@H](Cc1ccccc1)C(=O)N[C@@H](C(=O)N[C@H](C)C(=O)N[C@H](CCC(=O)O)C(=O)N[C@@H](C(=O)N[C@H](CCSC)C(=O)N[C@H](CC(N)=O)C(=O)N[C@H](CO)C(N)=O)[C@H](C)CC)C(C)C [D-Magainin 2 derivative, reference compound] (H-G[dI]G[dK][dF][dL][dH][dA][dA][dK][dK][dF][dA][dK][dA][dF][dV][dA][dE][dI][dM][dN][dS]-NH2; N-terminus assumed)	48%	inactive	
	CC(C)C[C@@H](CC(=O)N[C@H]1CCCC[C@@H]1C(=O)N[C@@H](CCCCN)CC(N)=O)NC(=O)C[C@H](CCCCN)NC(=O)[C@H]1CCCC[C@@H]1NC(=O)C[C@H](CC(C)C)NC(=O)C[C@H](CCCCN)NC(=O)[C@H]1CCCC[C@@H]1NC(=O)C[C@H](CC(C)C)NC(=O)C[C@@H](N)Cc1ccc(O)cc1 [β^3Tyr-(β^3Leu-ACHC-β^3Lys)3]			MIC [2]: 16 µg/mL (≈ 11.6 µM)
8 µg/mL	NCCCC[C@@H](CC(N)=O)NC(=O)C[C@H](Cc1ccccc1)NC(=O)[C@H]1CCCC[C@@H]1NC(=O)C[C@H](CCCCN)NC(=O)C[C@H](Cc1ccccc1)NC(=O)[C@H]1CCCC[C@@H]1NC(=O)C[C@H](CCCCN)NC(=O)C[C@H](Cc1ccccc1)NC(=O)[C@H]1CCCC[C@@H]1NC(=O)C[C@@H](N)Cc1ccc(O)cc1 [β-peptide 3, β^3Tyr-(ACHC-β^3Phe-β^3Lys)3]	80%		
69 µg/mL	CC(C)[C@@H](CC(=O)N[C@@H](CCCCN)CC(=O)N[C@H](CC(=O)N[C@H](CC(=O)N[C@@H](CCCCN)CC(=O)N[C@H](CC(=O)N[C@H](CC(=O)N[C@@H](CCCCN)CC(N)=O)C(C)C)C(C)C)C(C)C)C(C)C)NC(=O)C[C@@H](NC(=O)C[C@@H](N)Cc1ccc(O)cc1)C(C)C [β-peptide 4, β^3Tyr-(β^3Val-β^3Val-β^3Lys)3]	9%		antifungal activity in the planktonic NCCLS assay (in words) ([2]; pH 7, physiological ionic strength, listed as 4): substantially weaker antifungal activity; antifungal activity in the planktonic NCCLS assay (in words) ([2]; pH 7, physiological ionic strength, listed as β^3Tyr-(β^3Val-β^3Val-β^3Lys)3): showed activity in the planktonic assay
	CC(C)[C@@H](CC(=O)N[C@H]1CCCC[C@@H]1C(=O)N[C@@H](CCCCN)CC(=O)N[C@H](CC(=O)N[C@H]1CCCC[C@@H]1C(=O)N[C@H]1CCCC[C@@H]1C(=O)N[C@@H](CCCCN)CC(N)=O)C(C)C)NC(=O)C[C@@H](NC(=O)C[C@@H](N)CCCCN)C(C)C [β-peptide 7, β^3Lys-β^3Val-β^3Val-ACHC-β^3Lys-β^3Val-ACHC-ACHC-β^3Lys]		lack of antifungal activity	
	C9-β^3Tyr-(ACHC-ACHC-β^3Lys)3			Average MIC [2, 4]: 16 µg/mL
	NCCCC[C@H](CC(N)=O)NC(=O)C[C@@H](Cc1ccccc1)NC(=O)[C@@H]1CCCC[C@H]1NC(=O)C[C@@H](CCCCN)NC(=O)C[C@@H](Cc1ccccc1)NC(=O)[C@@H]1CCCC[C@H]1NC(=O)C[C@@H](CCCCN)NC(=O)C[C@@H](Cc1ccccc1)NC(=O)[C@@H]1CCCC[C@H]1NC(=O)C[C@H](N)Cc1ccc(O)cc1 [(R)β^3Tyr-[(R,R)ACHC—(R)β^3Phe-(R)β^3Lys]3]			MIC [2]: 8 µg/mL (≈ 5.41 µM)
21 µg/mL	NCCCC[C@@H](CC(N)=O)NC(=O)[C@H]1CCCC[C@@H]1NC(=O)[C@H]1CCCC[C@@H]1NC(=O)C[C@H](CCCCN)NC(=O)[C@H]1CCCC[C@@H]1NC(=O)[C@H]1CCCC[C@@H]1NC(=O)C[C@H](CCCCN)NC(=O)[C@H]1CCCC[C@@H]1NC(=O)[C@H]1CCCC[C@@H]1NC(=O)C[C@@H](N)Cc1ccc(O)cc1 [β-peptide 5, β^3Tyr-(ACHC-ACHC-β^3Lys)3]	7%		MIC [2]: 16 µg/mL (≈ 11.7 µM)
>128 µg/mL	CC[C@H](C)[C@H](NC(=O)CN)C(=O)NCC(=O)N[C@@H](CCCCN)C(=O)N[C@@H](Cc1ccccc1)C(=O)N[C@@H](CC(C)C)C(=O)N[C@@H](Cc1c[nH]cn1)C(=O)N[C@@H](C)C(=O)N[C@@H](C)C(=O)N[C@@H](CCCCN)C(=O)N[C@@H](CCCCN)C(=O)N[C@@H](Cc1ccccc1)C(=O)N[C@@H](C)C(=O)N[C@@H](CCCCN)C(=O)N[C@@H](C)C(=O)N[C@@H](Cc1ccccc1)C(=O)N[C@H](C(=O)N[C@@H](C)C(=O)N[C@@H](CCC(=O)O)C(=O)N[C@H](C(=O)N[C@@H](CCSC)C(=O)N[C@@H](CC(N)=O)C(=O)N[C@@H](CO)C(N)=O)[C@@H](C)CC)C(C)C [L-Magainin 2 derivative, reference compound] (H-GIGKFLHAAKKFAKAFVAEIMNS-NH2; N-terminus assumed)	48%	neither cecropin B nor a magainin derivative displays any activity	
	CC(C)[C@@H](CC(=O)N[C@@H](CCCCN)CC(N)=O)NC(=O)[C@H]1CCCC[C@@H]1NC(=O)C[C@H](CCCCN)NC(=O)C[C@@H](NC(=O)[C@H]1CCCC[C@@H]1NC(=O)C[C@H](CCCCN)NC(=O)C[C@@H](NC(=O)[C@H]1CCCC[C@@H]1N)C(C)C)C(C)C [β-peptide 6, (ACHC-β^3Val-β^3Lys)3]			% Hemolysis at MIC ([1]; human red blood cells, at the average MIC): 5%; Average MIC [2, 4]: 17 µg/mL; antifungal activity in the planktonic NCCLS assay (in words) ([2]; pH 7, physiological ionic strength, listed as 6): average MIC is indistinguishable relative to β^3Tyr-containing variant (1); antifungal activity in the planktonic NCCLS assay (in words) ([2]; pH 7, physiological ionic strength, listed as (ACHC-β^3Val-β^3Lys)3): showed activity in the planktonic assay
